According to patent US6506775B1, “Substituted benzylaminopiperidine compounds” (Pfizer INC, priority 1995, dated 2003):

Legend:
[1] = test system: [Sar^9, Met(O2)^11]substance P-induced tapping; assay: [Sar9, Met(O2)11]substance P-induced tapping test in gerbils; assay type: in vivo; conditions: repetitive hind paw tapping, Examples 3 and 5 compared with the corresponding no halosubstituted compounds
Experimental: The activity of the compounds of this invention against CNS disorders is determined in a [Sar^9, Met(O2)^11]substance P-induced tapping test in gerbils. More specifically, gerbils are lightly anesthetized with ether and the skull surface is exposed. [Sar^9, Met(O2)^11]substance P or vehicle (5 μl) are administered directly into the lateral ventricles via a 25 gauge needle inserted 3.5 mm below lambda. Following injection, gerbils are placed in 2 l beaker individually and monitored for repetitive hind paw tapping. Some compounds prepared in the following Examples were tested in accordance with these testing methods.

Row | melting point [°C] | Compound | activity against CNS disorders [1]
1 | 172 to 174 | CC(F)(F)c1ccc(OC(F)(F)F)c(CN[C@H]2CCCN[C@H]2c2ccccc2)c1.Cl.Cl | 
2 | 225 to 227 | COc1ccc(C(C)(C)C#CC(F)(F)F)cc1CN[C@H]1CCCN[C@H]1c1ccccc1.Cl.Cl | 
3 | 195 to 203 | Cl.Cl.Fc1ccc(C(F)(F)F)cc1CN[C@H]1CCCN[C@H]1c1ccccc1 | 
4 | 228 to 233 | COc1ccc(C(F)(F)F)cc1CN[C@H]1CCCN[C@H]1c1ccccc1.Cl.Cl [Example 3, (2S,3S)-3-(2-Methoxy-5-(trifluoromethyl)benzyl)amino-2-phenylpiperidine dihydrochloride] | unexpectedly improved activity against CNS disorders
5 | 190 to 197 | Cl.Cl.FC(F)(F)c1ccc(Oc2ccccc2)c(CN[C@H]2CCCN[C@H]2c2ccccc2)c1 | 
6 | 290 to 294 | COc1ccc(C(C(F)(F)F)C(F)(F)F)cc1CN[C@H]1CCCN[C@H]1c1ccccc1.Cl.Cl [Example 5, (2S,3S)-2-Phenyl-3-(5-(2,2,2-trifluoro-1-(trifluoromethyl)ethyl)-2-methoxybenzyl)aminopiperidine dihydrochloride] | unexpectedly improved activity against CNS disorders
7 | 265 to 270 | COc1ccc(C(F)(C(F)(F)F)C(F)(F)F)cc1CN[C@H]1CCCN[C@H]1c1ccccc1.Cl.Cl | 
